Values quoted from earlier work in patent US20210308204A1, “FORMULATIONS CONTAINING LIPOPHILIC EXTRACTS OF SPICY EDIBLE PLANTS USEFUL IN CONTROLLING PAIN AND INFLAMMATION” (priority 2018, published 2021).

Conditions: in vivo, po

tmax: about 15 minutes
SMILES: C/C1=C\CC/C(C)=C/C[C@](O)(C(C)C)CC/C(C)=C/CC1 [serratol]
